This is an account of results in patent publication US8076352B2, “Administration of carboline derivatives useful in the treatment of cancer and other diseases” (PTC Therapeutics, Inc., priority 2004, dated 2011).

Bounds are passed on as bounds.

In the assay the test system is hypoxia-inducible endogenous VEGF expression in HeLa cells. The assay is described as follows: Hypoxia-inducible endogenous VEGF expression, VEGF ELISA of conditioned media (dose-response EC50). It is filed as cell-based. As to conditions: HeLa cells under hypoxic conditions. The method, boiled down: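 HeLa cells were cultured 24-48 h under hypoxia (1% O2, 5% CO2, balance N2) with or without compound. Conditioned-media VEGF protein was measured by ELISA against a standard curve. EC50 and CC50 come from percentage-inhibition curves over, e.g., seven concentrations, with maximal inhibition set at 100%.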

With `Fc1cccc(C2NCCc3c2[nH]c2ccc(Cl)cc32)c1` (stereo not shown) [Compound 203], where the note is “Homo sapiens”, the EC50 lay within 200 to 1000 nM.

Where the note is “Homo sapiens”, `COCC(=O)N1CCc2c([nH]c3ccc(Br)cc23)C1c1ccc(OC)cc1` (stereo not shown) [Compound 204] gave a half-maximal effective concentration (EC50) of 200 to 1000 nM.

`Fc1ccccc1C1NCCc2c1[nH]c1ccc(Cl)cc21` (stereo not shown) [Compound 205]: the EC50 (Homo sapiens) was 200 to 1000 nM.

Take `CCNC(=S)N1CCc2c([nH]c3ccc(Cl)cc23)C1c1ccc(OCc2ccccc2)cc1` (stereo not shown) [Compound 206]: under “Homo sapiens”, the EC50 lay within 200 to 1000 nM.

Consider `FC(F)(F)c1cccc(C2NCCc3c2[nH]c2ccc(Br)cc32)c1` (stereo not shown) [Compound 207], for which the EC50 (Homo sapiens) fell in the range of 200 to 1000 nM.

In the case of `CCCCCC1c2[nH]c3ccc(Cl)cc3c2CCN1Cc1ccccc1` (stereo not shown) [Compound 208], the EC50 (Homo sapiens) was in the range of 200 to 1000 nM.

In turn, `CCOC(=O)N1CCc2c([nH]c3ccc(F)cc23)C1c1ccc(C)cc1` (stereo not shown) [Compound 209] had an EC50 (Homo sapiens) of 200 to 1000 nM.

`COc1cccc(C2NCCc3c2[nH]c2ccc(Cl)cc32)c1` (stereo not shown) [Compound 210] displayed a 50% effective concentration (EC50) (Homo sapiens) of 200 to 1000 nM.

Regarding `CCOC(=O)N1CCc2c([nH]c3ccc(Br)cc23)C1Cc1ccccc1` (stereo not shown) [Compound 211], for the setting “Homo sapiens”, the EC50 lay in the range of 200 to 1000 nM.

Turning to `Clc1ccc2[nH]c3c(c2c1)CCNC3c1ccc(OCc2ccccc2)cc1` (stereo not shown) [Compound 212], the EC50 (Homo sapiens) lay in the range of 200 to 1000 nM.

`Brc1cccc(C2NCCc3c2[nH]c2ccc(Br)cc32)c1` (stereo not shown) [Compound 213]: under “Homo sapiens”, the EC50 is 200 to 1000 nM.

For `COc1ccc(C2NCCc3c2[nH]c2ccc(Br)cc32)cc1` (stereo not shown) [Compound 214], the half-maximal effective concentration (EC50) (Homo sapiens) lay within 200 to 1000 nM.

`Fc1ccc(C2NCCc3c2[nH]c2ccc(Cl)cc32)cc1F` (stereo not shown) [Compound 215] returned an EC50 (Homo sapiens) of 200 to 1000 nM.

Regarding `Clc1ccc2[nH]c3c(c2c1)CCNC3c1ccccc1` (stereo not shown) [Compound 216], for the setting “Homo sapiens”, the concentration giving a half-maximal response (EC50) lay within 200 to 1000 nM.

Consider `COc1ccc(C2c3[nH]c4ccc(Cl)cc4c3CCN2C(=O)NCCCl)cc1` (stereo not shown) [Compound 217], for which, for the setting “Homo sapiens”, the EC50 lay in the range of 200 to 1000 nM.

Regarding `COCC(=O)N1CCc2c([nH]c3ccc(Br)cc23)C1c1cccc(Cl)c1` (stereo not shown) [Compound 218], the EC50 (Homo sapiens) fell in the range of 200 to 1000 nM.

Turning to `N#Cc1ccc(C2NCCc3c2[nH]c2ccc(Cl)cc32)cc1` (stereo not shown) [Compound 220], where the note is “Homo sapiens”, the EC50 was 200 to 1000 nM.

On to `CCNC(=O)N1CCc2c([nH]c3ccc(Cl)cc23)C1c1ccc(OCc2ccccc2)cc1` (stereo not shown) [Compound 221], for which the EC50 (Homo sapiens) fell in the range of 200 to 1000 nM.

Consider `Clc1ccc(CC2NCCc3c2[nH]c2ccc(Cl)cc32)c(Cl)c1` (stereo not shown) [Compound 222], for which, under “Homo sapiens”, the EC50 is 200 to 1000 nM.

Regarding `Clc1ccc2[nH]c3c(c2c1)CCNC3c1cc(Br)cc(Br)c1` (stereo not shown) [Compound 223], the EC50 (Homo sapiens) is 200 to 1000 nM.

Where the note is “Homo sapiens”, `CC(C)Oc1ccc(C2NCCc3c2[nH]c2ccc(Cl)cc32)cc1` (stereo not shown) [Compound 224] gave a 50% effective concentration (EC50) of 200 to 1000 nM.

Under “Homo sapiens”, `CS(=O)(=O)N1CCc2c([nH]c3ccc(Cl)cc23)C1c1ccc(OCc2ccccc2)cc1` (stereo not shown) [Compound 225] returned a concentration for a half-maximal effect (EC50) of 200 to 1000 nM.

`CCOC(=O)N1CCc2c([nH]c3ccc(Cl)cc23)C1Cc1ccccc1` (stereo not shown) [Compound 226]: the half-maximal effective concentration (EC50) (Homo sapiens) was in the range of 200 to 1000 nM.

Where the note is “Homo sapiens”, `Clc1ccc2[nH]c3c(c2c1)CCNC3c1ccc2c(c1)OCO2` (stereo not shown) [Compound 227] had an EC50 of 200 to 1000 nM.

Take `Clc1ccc2[nH]c3c(c2c1)CCN(Cc1ccco1)C3C1CCCCC1` (stereo not shown) [Compound 228]: the EC50 (Homo sapiens) lay within 200 to 1000 nM.

Under “Homo sapiens”, `CCOC(=O)N1CCc2c([nH]c3ccc(F)cc23)C1c1ccc(Cl)cc1` (stereo not shown) [Compound 229] showed a concentration giving a half-maximal response (EC50) of more than 1000 nM.

Where the note is “Homo sapiens”, `COCC(=O)N1CCc2c([nH]c3ccc(Br)cc23)C1c1ccccc1` (stereo not shown) [Compound 230] gave a concentration giving a half-maximal response (EC50) of more than 1000 nM.

On to `COc1ccc(C2NCCc3c2[nH]c2ccc(Cl)cc32)cc1` (stereo not shown) [Compound 231], for which the concentration for a half-maximal effect (EC50) (Homo sapiens) was more than 1000 nM.

Under “Homo sapiens”, `Brc1ccc2[nH]c3c(c2c1)CCNC3c1ccc(OCc2ccccc2)cc1` (stereo not shown) [Compound 232] yielded a half-maximal effective concentration (EC50) of more than 1000 nM.

Turning to `CC(C)(C)OC(=O)N[C@@H](Cc1ccccc1)C(=O)N1CCc2c([nH]c3ccc(Cl)cc23)C1c1ccccc1` (stereo partly shown) [Compound 233], the EC50 (Homo sapiens) is more than 1000 nM.

As to `O=c1c(C2NCCc3c2[nH]c2ccc(Cl)cc32)coc2ccccc12` (stereo not shown) [Compound 234], the EC50 (Homo sapiens) is more than 1000 nM.

`CCOC(=O)N1CCc2c([nH]c3ccccc23)C1c1ccc(OC)cc1` (stereo not shown) [Compound 235] returned an EC50 (Homo sapiens) of more than 1000 nM.

`COCCOCC(=O)N1CCc2c([nH]c3ccc(Br)cc23)C1c1ccc(Cl)cc1` (stereo not shown) [Compound 238]: the half-maximal effective concentration (EC50) (Homo sapiens) is more than 1000 nM.

On to `O=[N+]([O-])c1cccc(C2NCCc3c2[nH]c2ccc(Cl)cc32)c1` (stereo not shown) [Compound 239], for which the concentration giving a half-maximal response (EC50) (Homo sapiens) is more than 1000 nM.

Take `CCOC(=O)N1CCc2c([nH]c3ccc(Cl)cc23)C1CC` (stereo not shown) [Compound 240]: the EC50 (Homo sapiens) was more than 1000 nM.

Under “Homo sapiens”, `COCCOCC(=O)N1CCc2c([nH]c3ccc(Br)cc23)C1c1ccc(Br)cc1` (stereo not shown) [Compound 241] had a half-maximal effective concentration (EC50) of more than 1000 nM.

With `COc1ccc(C2c3[nH]c4ccc(F)cc4c3CCN2C(=S)NC2CCCCC2)cc1` (stereo not shown) [Compound 242], the concentration for a half-maximal effect (EC50) (Homo sapiens) was more than 1000 nM.

`CCOC(=O)N1CCc2[nH]c3ccc(Br)cc3c2C1` [Compound 243] yielded a half-maximal effective concentration (EC50) (Homo sapiens) of more than 1000 nM.

`COc1ccc(C2NC(C(=O)N3CCN(C(C)=O)CC3)Cc3c2[nH]c2ccc(Br)cc32)cc1` (stereo not shown) [Compound 244] had an EC50 (Homo sapiens) of more than 1000 nM.

As for `COc1ccc(C2NC(C(=O)NC3CCCCC3)Cc3c2[nH]c2ccc(Br)cc32)cc1` (stereo not shown) [Compound 245], the EC50 (Homo sapiens) is more than 1000 nM.

Consider `COc1ccc(C2NC(C(=O)Nc3ncc(C)s3)Cc3c2[nH]c2ccc(Br)cc32)cc1` (stereo not shown) [Compound 246], for which the 50% effective concentration (EC50) (Homo sapiens) is more than 1000 nM.

In the case of `COc1ccc(C2NC(C(=O)N3CCOCC3)Cc3c2[nH]c2ccc(Br)cc32)cc1` (stereo not shown) [Compound 247], for the setting “Homo sapiens”, the EC50 is more than 1000 nM.

The compound `Clc1ccc2[nH]c3c(c2c1)CNCC3c1ccccc1` (stereo not shown) [Compound 248] showed a half-maximal effective concentration (EC50) (Homo sapiens) of more than 1000 nM.

`CCOC(=O)N1Cc2c([nH]c3ccc(Br)cc23)C(O)C1` (stereo not shown) [Compound 249] displayed an EC50 (Homo sapiens) of more than 1000 nM.

`CCOC(=O)N1Cc2c([nH]c3ccc(Cl)cc23)C(c2ccccc2)C1` (stereo not shown) [Compound 250] gave an EC50 (Homo sapiens) of more than 1000 nM.

`Clc1ccc2[nH]c3c(c2c1)CCNC3Cc1ccccc1` (stereo not shown) [Compound 251] came in with an EC50 (Homo sapiens) of more than 1000 nM.

Under “Homo sapiens”, `Brc1ccc2[nH]c3c(c2c1)CCNC3Cc1ccccc1` (stereo not shown) [Compound 252] had a concentration for a half-maximal effect (EC50) of more than 1000 nM.

Compound `Fc1ccc2[nH]c3c(c2c1)CCNC3c1cccc(Cl)c1` (stereo not shown) [Compound 253] had an EC50 (Homo sapiens) of more than 1000 nM.

In turn, `Fc1ccc2[nH]c3c(c2c1)CCNC3c1ccc(Cl)cc1` (stereo not shown) [Compound 254] came in with a concentration giving a half-maximal response (EC50) (Homo sapiens) of more than 1000 nM.

In turn, `Cc1ccc(C2NCCc3c2[nH]c2ccc(F)cc32)cc1` (stereo not shown) [Compound 255] showed a half-maximal effective concentration (EC50) (Homo sapiens) of more than 1000 nM.

As for `Fc1ccc2[nH]c3c(c2c1)CCNC3c1ccc(Br)cc1` (stereo not shown) [Compound 256], the half-maximal effective concentration (EC50) (Homo sapiens) is more than 1000 nM.

For the compound `Fc1ccc2[nH]c3c(c2c1)CCNC3c1ccc(Cl)cc1Cl` (stereo not shown) [Compound 257], where the note is “Homo sapiens”, the concentration giving a half-maximal response (EC50) was more than 1000 nM.

On to `COCCOCC(=O)N1CCc2c([nH]c3ccc(Br)cc23)C1c1ccc(C)cc1` (stereo not shown) [Compound 258], for which the EC50 (Homo sapiens) was more than 1000 nM.

The compound `COCCOCC(=O)N1CCc2c([nH]c3ccc(Br)cc23)C1c1cccc(Cl)c1` (stereo not shown) [Compound 259] displayed a concentration giving a half-maximal response (EC50) (Homo sapiens) of more than 1000 nM.

On to `Clc1ccc2[nH]c3c(c2c1)CCN(Cc1ccccc1)C3c1nccs1` (stereo not shown) [Compound 262], for which the half-maximal effective concentration (EC50) (Homo sapiens) is more than 1000 nM.

For the setting “Homo sapiens”, `CC(C)(C)c1cc(C2c3[nH]c4ccc(Cl)cc4c3CCN2Cc2ccccc2)cc(C(C)(C)C)c1O` (stereo not shown) [Compound 263] had an EC50 of more than 1000 nM.

Take `Clc1ccc2[nH]c3c(c2c1)CCN(Cc1ccccc1)C3C1CCOC1` (stereo not shown) [Compound 264]: the 50% effective concentration (EC50) is more than 1000 nM.

Compound `Clc1ccc2[nH]c3c(c2c1)CCN(Cc1ccco1)C3c1ccco1` (stereo not shown) [Compound 265] came in with a concentration for a half-maximal effect (EC50) of more than 1000 nM.
